Patent US5059624A, “Guanidine derivatives having hypotensive activity, composition containing them and process for obtaining them” (Consiglio Nazionale Delle Ricerche, priority 1988, dated 1991)
Like-named read-outs stand apart in the source and are kept apart here.

How the values were obtained:
[1] = Lethal dose 50 (LD50) through i.p. route in mice; settings: mouse, in vivo, ip
Experimental: The lethal dose 50 (LD50) of guanido-I through i.p. route in mice turned out to be 57 mg±3.6 per kg.
The lethal dose 50 (LD50) of the diguanido-II through i.p. route in mice, turned out to be 7 mg±0.6 per kg.

[2] = test system: male Wistar rats
Experimental: In order to check its activity, diguanido-II was dissolved in a 0.9 % sodium chloride solution and administered through "rapid" i.v. route in male Wistar rats, under general anaesthesia obtained by means of 10% ethyl urethan (i ml/hg).
The active ingredients called guanido-III, -IV, -V, as well as agmatine and galegine, were also tested, after having been administered through "rapid" i.v. route in male Wistar rats (weighing average 280±5 g) under general anaesthesia obtained by means of 10% ethyl uretan (1 ml/hg, i.p.). The general experimental conditions were exactly the same as previously mentioned for guanido-I and diguanido-II, so that the cardiovascular and respiratory effects could be compared.
The parameters measured are as follows: systolic and diastolic systemic arterial pressure (AP), heart rate (HR), maximum rate of increase in the left ventricular isovolumetric pressure (dp/dt), respiratory frequency (RF) and tidal volume (TV). The doses (in μg/kg body weight, referred to the active substance) varied from 50 μg/kg to 6,400 μg/kg (ratio=2.0); in some cases higher does have been employed.

COc1ccc(C=CC(=O)NCCCCNC(=N)NCC=C(C)C)cc1OC [guanido-I]
LD50 [1]: 57 mg/kg | Δ AP DIAST ([2]; 50 μg/kg i.v.): -5 ± 1 mmHg | Δ AP SYST ([2]; 50 μg/kg i.v.): -4 ± 2 mmHg | Δ HR ([2]; 50 μg/kg i.v.): +8 ± 3 beats/min | Δ RF ([2]; 50 μg/kg i.v.): +6 ± 2 acts/min | Δ dp/dt ([2]; 50 μg/kg i.v.): +52 ± 8 mmHg/sec | Δ AP DIAST ([2]; 100 μg/kg i.v.): -6 ± 2 mmHg | Δ AP SYST ([2]; 100 μg/kg i.v.): -6 ± 2 mmHg | Δ HR ([2]; 100 μg/kg i.v.): +10 ± 1 beats/min | Δ RF ([2]; 100 μg/kg i.v.): +9 ± 4 acts/min | Δ dp/dt ([2]; 100 μg/kg i.v.): +141 ± 25 mmHg/sec | Δ AP DIAST ([2]; 200 μg/kg i.v.): -10 ± 2 mmHg | Δ AP SYST ([2]; 200 μg/kg i.v.): -11 ± 3 mmHg | Δ HR ([2]; 200 μg/kg i.v.): +13 ± 2 beats/min | Δ RF ([2]; 200 μg/kg i.v.): +12 ± 2 acts/min | Δ dp/dt ([2]; 200 μg/kg i.v.): +1284 ± 78 mmHg/sec | Δ AP DIAST ([2]; 400 μg/kg i.v.): -14 ± 3 mmHg | Δ AP SYST ([2]; 400 μg/kg i.v.): -15 ± 4 mmHg | Δ HR ([2]; 400 μg/kg i.v.): +14 ± 5 beats/min | Δ RF ([2]; 400 μg/kg i.v.): +16 ± 3 acts/min | Δ dp/dt ([2]; 400 μg/kg i.v.): +1712 ± 107 mmHg/sec | Δ AP DIAST ([2]; 800 μg/kg i.v.): -15 ± 3 mmHg | Δ AP SYST ([2]; 800 μg/kg i.v.): -17 ± 3 mmHg | Δ HR ([2]; 800 μg/kg i.v.): +18 ± 4 beats/min | Δ RF ([2]; 800 μg/kg i.v.): +25 ± 6 acts/min | Δ dp/dt ([2]; 800 μg/kg i.v.): +2140 ± 263 mmHg/sec | Δ AP DIAST ([2]; 1600 μg/kg i.v.): -18 ± 4 mmHg | Δ AP SYST ([2]; 1600 μg/kg i.v.): -21 ± 6 mmHg | Δ HR ([2]; 1600 μg/kg i.v.): +22 ± 3 beats/min | Δ RF ([2]; 1600 μg/kg i.v.): +23 ± 9 acts/min | Δ dp/dt ([2]; 1600 μg/kg i.v.): +2996 ± 104 mmHg/sec | Δ AP DIAST ([2]; 3200 μg/kg i.v.): -29 ± 4 mmHg | Δ AP SYST ([2]; 3200 μg/kg i.v.): -25 ± 5 mmHg | Δ HR ([2]; 3200 μg/kg i.v.): +25 ± 8 beats/min | Δ RF ([2]; 3200 μg/kg i.v.): +26 ± 7 acts/min | Δ dp/dt ([2]; 3200 μg/kg i.v.): +2984 ± 362 mmHg/sec | Δ AP DIAST ([2]; 6400 μg/kg i.v.): -29 ± 2 mmHg | Δ AP SYST ([2]; 6400 μg/kg i.v.): -34 ± 4 mmHg | Δ HR ([2]; 6400 μg/kg i.v.): +20 ± 4 beats/min | Δ RF ([2]; 6400 μg/kg i.v.): +29 ± 5 acts/min | Δ dp/dt ([2]; 6400 μg/kg i.v.): +3074 ± 441 mmHg/sec | effect on AP (in words) ([2]; i.v., 50-6400 μg/kg, rat): lowers the value of AP according to a linear dependence on the dose | effect on HR, dp/dt and RF (in words) ([2]; i.v., 50-6400 μg/kg, rat): causes an increase in the values of HR, dp/dt and RF | cardiovascular and respiratory effects (in words) ([2]; i.v., rat): giving hypotensive responses while increasing heart rate and inotropism as well as respiratory rate | changes in the tidal volume (TV) (in words) ([2]; i.v., rat): a linear increase has been observed with the doses | correlation with peripheral adrenergic receptors (α1-α2; β1-β2) (in words) ([2]; i.v., rat): do not seem to be correlated to significative actions of the active ingredient at the level of the peripheral adrenergic receptors
